Assay [1] addresses T1, recombinant human 17β-HSD1 (Homo sapiens, UniProt P14061).
T1 construct: made in house; host or cells: Sd9 (Sf9) insect cells, baculovirus (Bac to Bac Expression System)
T1 sequence (P14061 1-328): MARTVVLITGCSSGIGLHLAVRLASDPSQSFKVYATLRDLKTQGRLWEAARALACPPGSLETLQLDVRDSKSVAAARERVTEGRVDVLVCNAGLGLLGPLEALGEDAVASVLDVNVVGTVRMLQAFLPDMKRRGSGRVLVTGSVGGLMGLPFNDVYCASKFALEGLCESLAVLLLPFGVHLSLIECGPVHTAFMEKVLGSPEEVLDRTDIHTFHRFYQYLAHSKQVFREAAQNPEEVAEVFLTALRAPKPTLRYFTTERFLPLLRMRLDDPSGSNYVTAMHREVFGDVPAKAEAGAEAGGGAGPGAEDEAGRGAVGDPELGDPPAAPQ
In words: Inhibition of recombinant human 17β-HSD1 (conversion of 3H-estrone to estradiol, HPLC). Type of assay: biochemical. The conditions noted are these: inhibitor 1 μM; 30 nM estrone, 1 mM NADPH, 30 min RT; read-out: 17β-HDS1 Inhibition % at 1 μM. The protocol: 17β-HSD1 production and isolation: Recombinant baculovirus was generated by the “Bac to Bac Expression System” (Invitrogen). Recombinant bacmid was transfected to Sd9 insect cells using “Cellfectin Reagent” (Invitrogen). 60 h later cells were harvested; the microsomal fraction was isolated as described by Puranen, T. J., Poutanen, M. H., Peltoketo, H. E., Vihko, P. T. and Vihko, R. K. (1994) Site-directed mutagenesis of the putative active site of human 17 β-hydroxysteroid dehydrogenase type 1. Biochem. J. 304: 289-293. Aliquots were stored frozen until determination of enzymatic activity.
Assay—Inhibition of recombinant human 17β-HSD1: Protein homogenate (0.1 μg/ml) was incubated in 20 mM KH2PO4 pH 7.4 with 30 nM estrone (including 800 000 cpm/ml of ^3H-estrone) and 1 mM NADPH for 30 min at RT, in the presence of the potential inhibitor at concentrations 1 μM or 0.1 μM. Inhibitor stock solutions were prepared in DMSO. Final concentration of DMSO was adjusted to 1% in all samples. The enzyme reaction was stopped by addition of 10% trichloroacetic acid (final concentration). Samples were centrifuged in a microtiter plate at 4000 rpm for 10 min. Supernatants were applied to reverse phase HPLC on a Waters Symmetry C18 column, equipped with a Waters Sentry Guard column. Isocratic HPLC runs were performed at RT at a flow rate of 1 ml/min in acetonitrile:water 48:52 as running solvent. Radioactivity was monitored in the eluate by a Packard Flow Scintillation Analyzer. Total radioactivity for estrone and estradiol were determined in each sample and percent conversion of estrone to estradiol was calculated according to the following formula:
(§1) Percent inhibition was calculated flowingly: % inhibition=100−% conversion

For assay [2], the target named is T2, recombinant human 17β-HSD2 (Homo sapiens, UniProt P37059).
T2 construct: made in house; host or cells: Sd9 (Sf9) insect cells, baculovirus (Bac to Bac Expression System)
T2 sequence (P37059 1-387): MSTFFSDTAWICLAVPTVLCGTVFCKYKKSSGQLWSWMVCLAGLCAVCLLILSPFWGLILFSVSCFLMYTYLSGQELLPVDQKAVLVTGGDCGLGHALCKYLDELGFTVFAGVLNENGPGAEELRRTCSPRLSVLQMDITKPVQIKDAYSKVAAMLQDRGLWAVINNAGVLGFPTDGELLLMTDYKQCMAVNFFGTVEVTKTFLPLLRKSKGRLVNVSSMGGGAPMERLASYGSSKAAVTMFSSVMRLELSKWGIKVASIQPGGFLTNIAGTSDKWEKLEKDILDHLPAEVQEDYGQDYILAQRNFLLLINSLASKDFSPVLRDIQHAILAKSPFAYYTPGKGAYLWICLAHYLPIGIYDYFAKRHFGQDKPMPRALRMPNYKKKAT
In words: Inhibition of recombinant human 17β-HSD2 (conversion of 3H-estradiol to estrone, HPLC). The conditions noted are these: inhibitor 1 μM; 50 nM estradiol, 1 mM NADH, 30 min RT. The class given is biochemical. Here is the method: 17β-HSD2 production and isolation: Similarly to 17β-HSD1 the Recombinant baculovirus was generated by the “Bac to Bac Expression System” (Invitrogen). Recombinant bacmid was transfected to Sd9 insect cells using “Cellfectin Reagent” (Invitrogen). 60 h later cells were harvested and supernatant were fractionated by the following protocol: • cells were dissolved into 40 ml of A-buffer (40 mM TRIS, pH8.0, 20% glycerol, 20 μM NAD, 0.4 mM PMSF, 150 mM NaCl, 0.5% dodecyl-β-maltoside+protease inhibitor cocktail) • cells were sonicated • lysate was incubated on ice for 15 min • lysate was centrifuged 5000 rpm 15 min, +4° C. • centrifugation of the supernatant 180 000 g 30 min, +4° C. • pellet was dissolved into 8 ml of A-buffer • not resuspended material was removed by centrifugation 5000 rpm 15 min, +4° C. • the clear supernatant was divided into 100 μl aliquots and were stored frozen until determination of enzymatic activity.
The amount of 17β-HSD2 was analysed by immunoblotting and total protein concentration of each extract batch was determined.
Assay—Inhibition of recombinant human 17β-HSD2: Protein homogenate (4 μg/ml) was incubated in 20 mM KH2PO4 pH 8.5 with 50 nM estradiol (including 800 000 cpm/ml of ^3H-estradiol) and 1 mM […] for 30 min at RT, in the presence of the potential inhibitor at concentrations 1 μM or 0.1 μM. Inhibitor stock solutions were prepared in DMSO. Final concentration of DMSO was adjusted to 1% in all samples. The enzyme reaction was stopped by addition of 10% trichloroacetic acid (final concentration). Samples were centrifuged in a microtiter plate at 4000 rpm for 10 min. Supernatants were applied to reverse phase HPLC on a Waters Symmetry C18 column, equipped with a Waters Sentry Guard column. Isocratic HPLC runs were performed at RT at a flow rate ofl ml/min in acetonitrile:water 48:52 as running solvent. Radioactivity was monitored in the eluate by a Packard Flow Scintillation Analyzer. Total radioactivity for estrone and estradiol were determined in each sample and percent conversion of estradiol to estrone was calculated according to the following formula:
as §1

One may read the inhibition as the percentage by which the read-out fell short of the control.

Take `CO/N=C1\C[C@@H](CCC(=O)Nc2ncc(C)s2)C2C3CCc4cc(O)c([N+](=O)[O-])cc4C3CC[C@]12C` (stereo partly drawn) [VIV-2, 3-{(13S,15R)-3-Hydroxy-17-[(E)-methoxyimino]-13-methyl-2-nitro-7,8,9,11,12,13,14,15,16,17-decahydro-6H-cyclopenta[a]phenanthren-15-yl}-N-(5-methylthiazol-2-yl)propanamide]: the values for the inhibition at 1 µM in assay [1] and in assay [2] were 64% and 3%, respectively.
For `CO/N=C1\C[C@@H](CCC(=O)Nc2ncc(C)s2)C2C3CCc4c(ccc(O)c4[N+](=O)[O-])C3CC[C@]12C` (stereo partly drawn) [VIV-4, 3-{(13S,15R)-3-Hydroxy-17-[(E)-methoxyimino]-13-methyl-4-nitro-7,8,9,11,12,13,14,15,16,17-decahydro-6H-cyclopenta[a]phenanthren-15-yl}-N-(5-methylthiazol-2-yl)propanamide] the same measures were 90% and 16%.
`CO/N=C1\C[C@@H](CCC(=O)Nc2ncc(C)s2)C2C3CCc4cc(O)c(I)cc4C3CC[C@]12C` (stereo partly drawn) [VIV-6, 3-{(13S,15R)-3-Hydroxy-2-iodo-17-[(E)-methoxyimino]-13-methyl-7,8,9,11,12,13,14,15,16,17-decahydro-6H-cyclopenta[a]phenanthren-15-yl}-N-(5-methylthiazol-2-yl)propanamide]: the inhibition at 1 µM in assay [1] amounted to 90%; in assay [2] it was 0%.
With `CO/N=C1\C[C@@H](CCC(=O)Nc2ncc(C)s2)C2C3CCc4c(ccc(O)c4I)C3CC[C@]12C` (stereo partly drawn) [VIV-7, 3-{(13S,15R)-3-Hydroxy-4-iodo-17-[(E)-methoxyimino]-13-methyl-7,8,9,11,12,13,14,15,16,17-decahydro-6H-cyclopenta[a]phenanthren-15-yl}-N-(5-methylthiazol-2-yl)propanamide], the inhibition at 1 µM in assay [1] is 81%; in assay [2] it was 0%.
Turning to `CO/N=C1\C[C@@H](CCC(=O)Nc2ncc(C)s2)C2C3CCc4c(cc(I)c(O)c4I)C3CC[C@]12C` (stereo partly drawn) [VIV-8, 3-{(13S,15R)-3-Hydroxy-2,4-diiodo-17-[(E)-methoxyimino]-13-methyl-7,8,9,11,12,13,14,15,16,17-decahydro-6H-cyclopenta[a]phenanthren-15-yl}-N-(5-methylthiazol-2-yl)propanamide], the inhibition at 1 µM in assay [1] is 61%; in assay [2], 2%.
With `CO/N=C1\C[C@@H](CCC(=O)Nc2ncc(C)s2)C2C3CCc4c(ccc(O)c4Br)C3CC[C@]12C` (stereo partly drawn) [VIV-10, 3-{(13S,15R)-4-Bromo-3-hydroxy-17-[(E)-methoxyimino]-13-methyl-7,8,9,11,12,13,14,15,16,17-decahydro-6H-cyclopenta[a]phenanthren-15-yl}-N-(5-methylthiazol-2-yl)propanamide], the inhibition at 1 µM stood at 78% in assay [1] and 6% in assay [2].
For `CO/N=C1\C[C@@H](CCC(=O)Nc2ncc(C)s2)C2C3CCc4c(cc(Br)c(O)c4Br)C3CC[C@]12C` (stereo partly drawn) [VIV-11, 3-{(13S,15R)-2,4-Dibromo-3-hydroxy-17-[(E)-methoxyimino]-13-methyl-7,8,9,11,12,13,14,15,16,17-decahydro-6H-cyclopenta[a]phenanthren-15-yl}-N-(5-methylthiazol-2-yl)propanamide] the same measures were 78% and 3%.
For `CO/N=C1\C[C@@H](CCC(=O)Nc2ncc(C)s2)C2C3CCc4c(ccc(O)c4Cl)C3CC[C@]12C` (stereo partly drawn) [VIV-13, 3-{(13S,15R)-4-Chloro-3-hydroxy-17-[(E)-methoxyimino]-13-methyl-7,8,9,11,12,13,14,15,16,17-decahydro-6H-cyclopenta[a]phenanthren-15-yl}-N-(5-methylthiazol-2-yl)propanamide] the same measures were 86% and 5%.
For `CO/N=C1\C[C@@H](CCC(=O)Nc2ncc(C)s2)C2C3CCc4c(cc(Br)c(O)c4F)C3CC[C@]12C` (stereo partly drawn) [VIV-17, 3-{(13S,15R)-2-Bromo-4-fluoro-3-hydroxy-17-[(E)-methoxyimino]-13-methyl-7,8,9,11,12,13,14,15,16,17-decahydro-6H-cyclopenta[a]phenanthren-15-yl}-N-(5-methylthiazol-2-yl)propanamide], the inhibition at 1 µM in assay [1] was found to be 83%; in assay [2], 2%.
Consider `CO/N=C1\C[C@@H](CCC(=O)Nc2ncc(C)s2)C2C3CCc4c(cc(F)c(O)c4Br)C3CC[C@]12C` (stereo partly drawn) [VIV-18, 3-{(13S,15R)-4-Bromo-2-fluoro-3-hydroxy-17-[(E)-methoxyimino]-13-methyl-7,8,9,11,12,13,14,15,16,17-decahydro-6H-cyclopenta[a]phenanthren-15-yl}-N-(5-methylthiazol-2-yl)propanamide], for which the inhibition at 1 µM was determined as 55% in assay [1] and 1% in assay [2].
With `CO/N=C1\C[C@@H](CCC(=O)Nc2ncc(C)s2)C2C3CCc4cc(O)c(C#N)cc4C3CC[C@]12C` (stereo partly drawn) [VIV-19, 3-{(13S,15R)-3-hydroxy-17-[(E)-methoxyimino]-13-methyl-2-nitrile-7,8,9,11,12,13,14,15,16,17-decahydro-6H-cyclopenta[a]phenanthren-15-yl}-N-(5-methylthiazol-2-yl)propanamide], the values for the inhibition at 1 µM in assay [1] and in assay [2] were 93% and 2%, respectively.
For `CO/N=C1\C[C@@H](CCC(=O)Nc2ncc(C)s2)C2C3CCc4c(ccc(O)c4C#N)C3CC[C@]12C` (stereo partly drawn) [VIV-20, 3-{(13S,15R)-3-hydroxy-17-[(E)-methoxyimino]-13-methyl-4-nitrile-7,8,9,11,12,13,14,15,16,17-decahydro-6H-cyclopenta[a]phenanthren-15-yl}-N-(5-methylthiazol-2-yl)propanamide] the same measures were 73% and 0%.
With `Cc1cnc(NC(=O)CC[C@@H]2C/C(=N\O)[C@@]3(C)CCC4c5ccc(O)cc5CCC4C23)s1` (stereo partly drawn) [VIV-22, 3-{(13S,15R)-3-Hydroxy-17-[(E)-hydroxyimino]-13-methyl-7,8,9,11,12,13,14,15,16,17-decahydro-6H-cyclopenta[a]phenanthren-15-yl}-N-(5-methylthiazol-2-yl)propanamide], the inhibition at 1 µM in assay [1] turned out to be 81%; in assay [2] it was 4%.

(Values after US10413557B2, “Prodrugs of 17.BETA.-HSD1-inhibitors” (FORENDO PHARMA LTD, priority 2014, dated 2019).)
